Converted amounts (≈) assume the structure as drawn. Read-outs that look alike come from different tables or passages of the source.
Legend:
[1] = cited from earlier work
[2] = tested on: human skin fibroblast cell line CRL1121; assay: Stimulation of pro-collagen synthesis/secretion in cultured human skin fibroblasts (immunoblotting, densitometry); type: cell-based; details: for pro-collagen synthesis/secretion: serum-free medium with sodium ascorbate and 0.5% ethanol, vs control carrier, immunoblot FIG. 1
Protocol: The effect of N-octanoyl-Gly-Pro (also referred to herein as OGP) prepared in Example 2 on intracellular synthesis of pro-collagen, the precursor of collagen, was tested. OGP was applied from a 250 mg/ml stock solution in ethanol. The composition of the solute, estimated by thin layer chromatography, was 80% OGP, 15% nicotinamide and 5% octanoic acid.
The human skin fibroblast cell line CRL1121, obtained from ATCC (American Type Culture Collection), was used for monitoring pro-collagen synthesis. Cells were grown in high glucose-DMEM containing 10% Fetal Calf Serum and antibiotics (streptomycin and penicillin). Confluent cells were suspended and inoculated into wells in 96-well microplates at 7,500 cells/well. At confluency, the cells were placed on fresh medium plus sodium ascorbate (50 μg/ml) for 24 hrs. The cells were then washed with phosphate-buffered saline (PBS) and placed on serum-free medium containing sodium ascorbate, 0.5% ethanol and 50 μM OGP. Controls included cells placed in the same medium, without OGP. After 24 hrs incubation of the experimental and control cells, media were collected, centrifuged, and the proteins were denatured by SDS and heat, and stored at −20° C. for immunoblotting analyses. The cell layers were washed with PBS, dissolved in SDS sample buffer, centrifuged and stored at −20° C. until use.
The relative amount of pro-collagen secreted into the medium was determined by immunoblotting with an antibody directed to the C-terminal telopeptide of the α1(I) collagen chain, followed by enhanced chemiluminescence detection and densitometry (Shalitin N, Schlesinger H, Levy, M J, Kessler E, Kessler-Icekson G. Expression of procollagen C-proteinase enhancer in cultured rat heart fibroblasts: Evidence for co-regulation with type I collagen, J. Cell. Biochem. 90:397-407, 2003). Protein concentrations in the cell lysates were determined using the Lowry method and served for standardization. The relative Optical Density of the band corresponding to the (I) chain of pro-collagen was divided by the amount of protein and was expressed as D/P (i.e. band intensity per 1 μg protein). […] FIG. 2 presents the relative amounts of the produced and secreted pro-collagen in the OGP-treated culture compared to the control.

| Compound | solubility ([1]; ethanol) [g/1.5 ml] | solubility ([1]; water) [g/mL] | pro-collagen synthesis/secretion ([2]; 50 μM OGP, 24 hrs) | pro-collagen synthesis/secretion ([2]; 50 μM OGP, 24 hrs, listed as Oct-GP) | increase of pro-collagen synthesis and secretion (factor vs control) ([2]; 50 μM OGP, 24 hrs, densitometry of control lanes 3 and 4, standardized to protein contents) | relative amounts of pro-collagen produced and secreted into the medium (D/P ratio) ([2]; Oct-GP-treated culture vs control, densitometry standardized by protein, FIG. 2) |
| --- | --- | --- | --- | --- | --- | --- |
| NC(=O)c1cccnc1 [nicotinamide] | 1 | 1 (≈ 8190 mM) | – | – | – | – |
| N-octanoyl-Gly-Pro [OGP] | – | – | greatly enhanced pro-collagen synthesis | stimulates pro-collagen synthesis/secretion | ≥ 8.3 | higher than those of the control |

— patent publication US20180215784A1, “METHOD FOR PREPARATION OF N-ACYL PEPTIDES, POLYPEPTIDES AND PROTEINS” (NEODEL TEC LTD., priority 2015, published 2018)
